Laboratory results: ChEMBL document CHEMBL1201862, “PubChem BioAssay data set” (2004)
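Method: 48-hour compound exposure of cells in 96-well plates, five concentrations, linear interpolation of endpoints. The concentration for 50% growth inhibition is given as GI50.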 Calls of active or inactive are those of the source. No stated cut-off is given here; in the data, active = GI50 up to about 1.1 µM and inactive = higher.

What was measured:
Assay in all cases: NCI tumour cell line growth inhibition, 48 h
[1] = system: NCI-H226
[2] = system: K562
[3] = system: EKVX
[4] = system: UO-31
[5] = system: NCI-H522
[6] = system: SNB-75
[7] = system: HCT-15
[8] = system: HOP-92
[9] = system: HOP-62
[10] = system: SF-539
[11] = system: SW-620
[12] = system: HL-60
[13] = system: HCC 2998
[14] = system: OVCAR-5
[15] = system: SK-MEL-5
[16] = system: MDA-MB-231
[17] = system: Hs-578T
[18] = system: NCI/ADR-RES
[19] = system: MCF7

Row | SMILES | GI50 [1] | GI50 [2] | GI50 [3] | GI50 [4] | GI50 [5] | GI50 [6] | GI50 [7] | GI50 [8] | GI50 [9] | GI50 [10] | GI50 [11] | GI50 [12] | GI50 [13] | GI50 [14] | GI50 [15] | GI50 [16] | GI50 [17] | GI50 [18] | GI50 [19]
1 | Oc1cc(-c2ccc3c(c2)OCO3)nc2cc3c(cc12)OCO3 | 34.4 µM (inactive) | 28.8 µM (inactive) | > 100 µM (inactive) | > 100 µM (inactive) | 40.2 µM (inactive) | 1.01 µM (active) | 40.3 µM | > 100 µM (inactive) | 22.9 µM (inactive) | 23 µM (inactive) | 35.8 µM (inactive) | 24.5 µM (inactive) | 31.4 µM (inactive) | – | – | – | – | – | –
2 | COc1ccc(C(O)/C(=C/n2ccnc2)c2ccccc2)cc1OC (stereo not drawn) | > 100 µM (inactive) | > 100 µM (inactive) | > 100 µM (inactive) | > 100 µM (inactive) | – | 49.4 µM (inactive) | > 100 µM | > 100 µM (inactive) | > 100 µM (inactive) | > 100 µM (inactive) | > 100 µM (inactive) | > 100 µM (inactive) | > 100 µM (inactive) | > 100 µM (inactive) | > 100 µM (inactive) | – | – | – | –
3 | C=CCNC(=O)NCCCCC(NC(C)=O)C(=O)NCc1ccccc1 (stereo not drawn) | > 100 µM (inactive) | > 100 µM (inactive) | > 100 µM (inactive) | > 100 µM (inactive) | > 100 µM (inactive) | > 100 µM (inactive) | > 100 µM | > 100 µM (inactive) | > 100 µM (inactive) | > 100 µM (inactive) | > 100 µM (inactive) | > 100 µM (inactive) | > 100 µM (inactive) | > 100 µM (inactive) | > 100 µM (inactive) | – | – | – | –
4 | COc1ccccc1NC(=S)N/N=C(/C)c1ccccn1 | – | < 0.01 µM (active) | 0.268 µM (active) | 1.37 µM (inactive) | – | 1.45 µM (inactive) | < 0.0318 µM | 6.93 µM (inactive) | < 0.0127 µM (active) | 0.371 µM (active) | < 0.01 µM (active) | < 0.01 µM (active) | 7 µM (inactive) | – | < 0.041 µM (active) | < 0.01 µM (active) | > 37.5 µM (inactive) | < 0.01 µM (active) | < 0.01 µM (active)
5 | CCC1(O)C(=O)OCc2c1cc1n(c2=O)Cc2c-1nc1ccccc1c2OC (stereo not drawn) | < 0.01 µM (active) | < 0.0305 µM (active) | 2.91 µM (inactive) | < 0.0221 µM (active) | 0.0242 µM (active) | < 0.0156 µM (active) | 0.117 µM | 0.106 µM (active) | < 0.01 µM (active) | < 0.01 µM (active) | < 0.01 µM (active) | < 0.01 µM (active) | 0.218 µM (active) | 0.0711 µM (active) | 0.0184 µM (active) | – | – | – | –
6 | COc1ccc2c(c1)Oc1cc(O)ccc1[C@@H]2c1ccccc1C(=O)NC(C)c1ccccc1 (stereo partly drawn) | 18.3 µM (inactive) | 14.8 µM (inactive) | 13.3 µM (inactive) | 13.5 µM (inactive) | 14.4 µM (inactive) | 14.7 µM (inactive) | 13.7 µM | – | 15.3 µM (inactive) | 16.3 µM (inactive) | 19 µM (inactive) | 11.3 µM (inactive) | 11.9 µM (inactive) | 16.4 µM (inactive) | 17.7 µM (inactive) | – | – | – | –
7 | Cc1ccc(C(=O)NCCN(C)C)c2nc3ccccc3cc12 | 1.15 µM (inactive) | 1.4 µM (inactive) | 1.73 µM (inactive) | 2.49 µM (inactive) | – | 1.52 µM (inactive) | 0.644 µM | 14 µM (inactive) | 8.24 µM (inactive) | – | 0.445 µM (active) | 1.42 µM (inactive) | 2.56 µM (inactive) | 1.94 µM (inactive) | 1.52 µM (inactive) | – | – | – | –
8 | CCN(CC)CC(C(=O)Nc1c(C)cccc1C)/C(C)=N\NC(=O)c1ccncc1 (stereo not drawn) | > 100 µM (inactive) | – | – | > 100 µM (inactive) | > 100 µM (inactive) | > 100 µM (inactive) | > 100 µM | > 100 µM (inactive) | > 100 µM (inactive) | > 100 µM (inactive) | – | – | > 100 µM (inactive) | > 100 µM (inactive) | > 100 µM (inactive) | – | – | – | –
9 | Cc1ccc(NC(=O)CC/C(CC(=O)C(C)(C)C)=N\NC(=O)C[n+]2ccccc2)cc1C | > 100 µM (inactive) | 46.9 µM (inactive) | > 100 µM (inactive) | > 100 µM (inactive) | > 100 µM (inactive) | > 100 µM (inactive) | 53 µM | > 100 µM (inactive) | > 100 µM (inactive) | > 100 µM (inactive) | > 100 µM (inactive) | 32 µM (inactive) | > 100 µM (inactive) | > 100 µM (inactive) | > 100 µM (inactive) | – | – | – | –
10 | O=C(O)CNS(=O)(=O)c1ccc(NC(=O)CI)cc1 | > 100 µM (inactive) | 10.2 µM (inactive) | 32.7 µM (inactive) | 20 µM (inactive) | 2.16 µM (inactive) | 17.1 µM (inactive) | 17.6 µM | 19.4 µM (inactive) | – | 16.1 µM (inactive) | 13.2 µM (inactive) | 18.2 µM (inactive) | > 100 µM (inactive) | 27.6 µM (inactive) | 22.2 µM (inactive) | – | – | – | –
11 | COP(=O)(OC)C(NC(=O)C(F)(F)F)(c1ccccc1)C(F)(F)F (stereo not drawn) | > 100 µM (inactive) | > 100 µM (inactive) | > 100 µM (inactive) | > 100 µM (inactive) | > 100 µM (inactive) | > 100 µM (inactive) | > 100 µM | > 100 µM (inactive) | > 100 µM (inactive) | > 100 µM (inactive) | > 100 µM (inactive) | > 100 µM (inactive) | > 100 µM (inactive) | > 100 µM (inactive) | > 100 µM (inactive) | – | – | – | –
12 | O=[N+]([O-])c1cnn(C2=CNc3ccccc3N=C2)c1 | > 100 µM (inactive) | – | > 100 µM (inactive) | > 100 µM (inactive) | – | 43.8 µM (inactive) | > 100 µM | > 100 µM (inactive) | > 100 µM (inactive) | > 100 µM (inactive) | – | > 100 µM (inactive) | > 100 µM (inactive) | > 100 µM (inactive) | – | – | – | – | –
13 | O=C1CC[C@@H](S(=O)(=O)c2ccccc2)[C@@H](/C=C/c2ccccc2)O1 | > 100 µM (inactive) | > 100 µM (inactive) | > 100 µM (inactive) | > 100 µM (inactive) | > 100 µM (inactive) | > 100 µM (inactive) | > 100 µM | – | > 100 µM (inactive) | > 100 µM (inactive) | > 100 µM (inactive) | > 100 µM (inactive) | > 100 µM (inactive) | > 100 µM (inactive) | > 100 µM (inactive) | – | – | – | –
14 | CC(C)(C)CC(C)(C)NCC(O)COc1ccc(C(C)(C)c2ccc(OCC(O)CNC(C)(C)CC(C)(C)C)cc2)cc1 (stereo not drawn) | 1.97 µM (inactive) | 0.244 µM (active) | 1.72 µM (inactive) | 1.61 µM (inactive) | 1.61 µM (inactive) | 1.6 µM (inactive) | 1.37 µM | 1.78 µM (inactive) | 1.77 µM (inactive) | 1.86 µM (inactive) | 0.213 µM (active) | 1.46 µM (inactive) | 0.349 µM (active) | 1.88 µM (inactive) | 1.32 µM (inactive) | – | – | – | –
15 | COC(=O)C1=C(C[S+]([O-])c2ccc([N+](=O)[O-])cc2[N+](=O)[O-])C2C=CC1C2 (stereo not drawn) | 31.4 µM (inactive) | 19 µM (inactive) | 23.6 µM (inactive) | 22.4 µM (inactive) | 13.8 µM (inactive) | 25.3 µM (inactive) | 15.7 µM | – | > 100 µM (inactive) | 24.3 µM (inactive) | 14.4 µM (inactive) | 16.2 µM (inactive) | 38.4 µM (inactive) | > 100 µM (inactive) | 63.2 µM (inactive) | – | – | – | –
16 | N#CC(C#N)=c1ccc(=C2NCC3CCCN23)cc1 (stereo not drawn) | > 100 µM (inactive) | > 100 µM (inactive) | – | > 100 µM (inactive) | > 100 µM (inactive) | > 100 µM (inactive) | > 100 µM | > 100 µM (inactive) | > 100 µM (inactive) | > 100 µM (inactive) | > 100 µM (inactive) | > 100 µM (inactive) | > 100 µM (inactive) | > 100 µM (inactive) | > 100 µM (inactive) | – | – | – | –
17 | CC(=O)NC1=C(Nc2ccc(C)cc2)C(=O)c2ccccc2C1=O | 14.1 µM (inactive) | 18.2 µM (inactive) | > 75 µM (inactive) | 25 µM (inactive) | – | 11.6 µM (inactive) | 14.5 µM | – | 17.1 µM (inactive) | 16.2 µM (inactive) | 13.5 µM (inactive) | 10.2 µM (inactive) | 31.7 µM (inactive) | 13.3 µM (inactive) | 10.2 µM (inactive) | – | – | – | –
18 | COC(=O)[C@@]12C3=NO[C@]1(C(=O)OC)C(O[Si](C)(C)C(C)(C)C)C1OC(C)(C)OC1[C@@H]2[C@@H](OCc1ccccc1)CC3 (stereo partly drawn) | > 100 µM (inactive) | 8.93 µM (inactive) | > 100 µM (inactive) | 8.85 µM (inactive) | – | 9.66 µM (inactive) | 91 µM | 4.4 µM (inactive) | – | > 100 µM (inactive) | > 100 µM (inactive) | 3.11 µM (inactive) | > 100 µM (inactive) | – | 85.5 µM (inactive) | – | – | – | –
19 | Nc1ccc(Nc2cc(O)nc(O)n2)cc1 | > 100 µM (inactive) | > 100 µM (inactive) | > 100 µM (inactive) | – | > 100 µM (inactive) | – | > 100 µM | – | > 100 µM (inactive) | > 100 µM (inactive) | > 100 µM (inactive) | > 100 µM (inactive) | > 100 µM (inactive) | – | > 100 µM (inactive) | > 100 µM (inactive) | > 100 µM (inactive) | > 100 µM (inactive) | > 100 µM (inactive)
20 | CC(C)(O)C(O)COc1c2c(cc3oc(=O)ccc13)OCO2 (stereo not drawn) | > 100 µM (inactive) | > 100 µM (inactive) | > 100 µM (inactive) | > 100 µM (inactive) | > 100 µM (inactive) | 71.9 µM (inactive) | > 100 µM | > 100 µM (inactive) | > 100 µM (inactive) | > 100 µM (inactive) | > 100 µM (inactive) | > 100 µM (inactive) | > 100 µM (inactive) | > 100 µM (inactive) | > 100 µM (inactive) | – | – | – | –
